# Experiments:
# [1] = system: CEM-SS infected with HIVIIIB; test: Cell viability of HIV-infected CEM-SS cells by trypan blue dye exclusion; format: cell-based, HIV-1; settings: 1.0 mA; for Cell Viability, HIV-Infected Cells: 7 days post exposure
# Method: (§1) In one test performed according to the invention, infection studies were carried out in a Level III facility in vitro using HIV-infected and noninfected cells. To establish infection, a viral dose of MOI 0.5 was added to a culture flask. The supernatants of control and test flasks were tested for the presence of the p24 antigen. Cells were then incubated in the presence and absence of silver ions produced by passing current through a sterile silver electrode present in the culture flask. Current was applied for 0, 1, 5, 10 and 30 minutes after incubation of virus with the cells. Cells were then be maintained in culture for 7 days and the concentration of p24 antigen in the supernatant was determined.
# (§2) The cells used for such studies were CEM-SS cultured human lymphoblasts to allow detection and monitoring of HIV-induced synceytium. Cells were grown in enriched RPMI medium (20% fetal calf serum; FCS) and maintained in a 5% CO2 enriched tissue culture incubator at 37 degrees Celsius. Infection was conducted at a Multiplicity Dose of 0.5 using HIVIIIB prepared from previously infected CEM-SS stock suspensions.
# (§3) In this test performed according to the invention, a silver catheter was introduced by drill into the tissue culture flask, sealed and the flask was then gas-sterilized. Silver ions were generated by connecting the silver electrode to a purpose-built device designed by one of the investigators (RE) powered by a 9 volt battery and designed to generate a steady current of 1.0 milliamp.
# (§4) Cell viability was determined using trypan blue dye exclusion. The HIV p24 antigen concentrations in the culture supernatants were determined using an antigen capture assay.
# (§5) Each experiment was performed in triplicate and repeated three times. Differences between cells exposed and unexposed to silver ions were compared by analysis of variance.
# [2] = system: HIVIIIB in CEM-SS cells (p24 antigen); test: HIV p24 antigen in culture supernatant by antigen capture assay; format: cell-based, HIV-1
# Method: as §1, §2, §3, §4, §5
substance,measurement,setting,value
silver ions,Increase in cell viability of infected cells compared to similar cells not subjected to the silver ion treatment,[1]; 10 minutes of silver ion exposure,greater than 25%
same,"Cell Viability, HIV-Infected Cells",[1]; five minute treatment,45% alive
same,"Cell Viability, HIV-Infected Cells",[1]; one minute treatment,37% alive
same,"Cell Viability, HIV-Infected Cells","[1]; one minute treatment, listed as Silver Ions",37%
same,"Cell Viability, HIV-Infected Cells",[1]; ten minute treatment,54% alive
same,"Cell Viability, HIV-Infected Cells","[1]; ten minute treatment, listed as Silver Ions",54%
same,"Cell Viability, HIV-Infected Cells",[1]; thirty minute treatment,28% alive
same,Change in p24 antigen (in words),[2]; after 10 minutes of 1.0 mA current flow,decline
same,Decline in the concentration of p24 antigen in HIV-exposed cultures,"[2]; over thirty minutes, 1.0 mA, p<0.05",56%
same,Change in p24 concentration (in words),[2]; silver ion incubation for five minutes,initial increase

# Reference: US20080195033A1, “Method of Delivery of Therapeutic Metal Ions, Alloys and Salts” (INTERNATIONAL BIO-THERAPEUTIC RESEARCH INC., priority 2004, published 2008)
